Measurements published in ChEMBL document CHEMBL1255512, “Pyrazolo[1,5-a]pyrimidine acetamides: 4-Phenyl alkyl ether derivatives as potent ligands for the 18 kDa translocator protein (TSPO)” (Bioorg Med Chem Lett, 2010).

How the values were obtained:
[1] = biological target: 5-hydroxytryptamine receptor 5A (Homo sapiens) (UniProt P47898); test: Inhibition of 5-HT5A receptor at 10 uM
[2] = biological target: 5-hydroxytryptamine receptor 1B (Homo sapiens, UniProt P28222); test: Inhibition of 5-HT1B receptor
Chain of 5-hydroxytryptamine receptor 1B (P28222 whole entry): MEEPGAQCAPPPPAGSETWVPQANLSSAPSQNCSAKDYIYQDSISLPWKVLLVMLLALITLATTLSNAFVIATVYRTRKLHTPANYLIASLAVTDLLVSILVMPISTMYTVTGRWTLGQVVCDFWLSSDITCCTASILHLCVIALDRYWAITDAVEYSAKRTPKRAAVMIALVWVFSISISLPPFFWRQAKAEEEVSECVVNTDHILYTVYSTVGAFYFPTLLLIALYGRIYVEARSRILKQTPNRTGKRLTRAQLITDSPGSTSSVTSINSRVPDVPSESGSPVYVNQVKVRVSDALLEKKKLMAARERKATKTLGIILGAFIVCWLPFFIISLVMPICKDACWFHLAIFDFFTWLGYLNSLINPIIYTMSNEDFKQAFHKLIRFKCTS

[3] = biological target: D(3) dopamine receptor (Homo sapiens) (UniProt P35462); test: Inhibition of D3 dopamine receptor at 10 uM
Chain of D(3) dopamine receptor (Homo sapiens) (P35462 whole entry): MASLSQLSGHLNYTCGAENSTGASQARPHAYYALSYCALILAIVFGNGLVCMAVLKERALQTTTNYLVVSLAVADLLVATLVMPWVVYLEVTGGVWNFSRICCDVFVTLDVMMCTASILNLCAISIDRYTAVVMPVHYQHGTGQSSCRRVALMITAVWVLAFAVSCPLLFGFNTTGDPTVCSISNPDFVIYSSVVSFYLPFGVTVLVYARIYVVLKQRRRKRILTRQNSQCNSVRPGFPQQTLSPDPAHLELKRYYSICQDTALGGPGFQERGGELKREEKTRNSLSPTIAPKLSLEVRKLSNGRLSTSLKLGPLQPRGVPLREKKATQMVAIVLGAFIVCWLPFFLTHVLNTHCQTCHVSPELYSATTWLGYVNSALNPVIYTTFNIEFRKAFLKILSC

[4] = biological target: Histamine H4 receptor (Homo sapiens) (UniProt Q9H3N8); test: Inhibition of H4 receptor at 10 uM
Chain of Histamine H4 receptor (Homo sapiens) (Q9H3N8 whole entry): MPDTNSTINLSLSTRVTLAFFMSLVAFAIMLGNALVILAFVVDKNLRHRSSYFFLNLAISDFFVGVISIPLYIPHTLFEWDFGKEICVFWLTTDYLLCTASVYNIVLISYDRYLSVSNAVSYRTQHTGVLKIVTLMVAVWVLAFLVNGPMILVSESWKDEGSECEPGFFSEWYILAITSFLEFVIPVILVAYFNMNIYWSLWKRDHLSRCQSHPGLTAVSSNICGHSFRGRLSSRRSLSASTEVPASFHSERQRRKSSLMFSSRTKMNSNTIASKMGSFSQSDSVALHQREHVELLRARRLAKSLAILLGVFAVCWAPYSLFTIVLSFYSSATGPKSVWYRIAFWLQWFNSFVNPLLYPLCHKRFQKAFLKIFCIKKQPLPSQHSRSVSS

[5] = biological target: Sodium-dependent serotonin transporter (Homo sapiens) (UniProt P31645); test: Inhibition of 5HT transporter at 10 uM
Chain of Sodium-dependent serotonin transporter (Homo sapiens) (P31645 whole entry, looked up): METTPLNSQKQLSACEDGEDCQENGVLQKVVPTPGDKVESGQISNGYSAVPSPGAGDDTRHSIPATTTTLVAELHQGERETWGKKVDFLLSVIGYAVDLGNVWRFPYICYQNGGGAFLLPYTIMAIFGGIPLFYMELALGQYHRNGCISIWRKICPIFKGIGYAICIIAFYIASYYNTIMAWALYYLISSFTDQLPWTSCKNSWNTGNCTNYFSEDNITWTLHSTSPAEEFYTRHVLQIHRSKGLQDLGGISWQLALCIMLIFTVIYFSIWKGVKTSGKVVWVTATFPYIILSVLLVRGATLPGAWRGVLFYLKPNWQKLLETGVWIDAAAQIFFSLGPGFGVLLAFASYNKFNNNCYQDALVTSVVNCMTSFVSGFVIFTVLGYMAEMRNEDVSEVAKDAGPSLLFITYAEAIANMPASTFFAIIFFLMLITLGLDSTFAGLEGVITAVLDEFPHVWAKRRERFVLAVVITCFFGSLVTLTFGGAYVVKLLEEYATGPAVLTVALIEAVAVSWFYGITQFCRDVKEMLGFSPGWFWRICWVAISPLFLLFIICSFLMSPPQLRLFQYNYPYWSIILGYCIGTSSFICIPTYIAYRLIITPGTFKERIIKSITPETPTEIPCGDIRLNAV

[6] = biological target: Histamine H1 receptor (Homo sapiens) (UniProt P35367); test: Inhibition of H1 receptor at 10 uM
Chain of Histamine H1 receptor (Homo sapiens) (P35367 whole entry): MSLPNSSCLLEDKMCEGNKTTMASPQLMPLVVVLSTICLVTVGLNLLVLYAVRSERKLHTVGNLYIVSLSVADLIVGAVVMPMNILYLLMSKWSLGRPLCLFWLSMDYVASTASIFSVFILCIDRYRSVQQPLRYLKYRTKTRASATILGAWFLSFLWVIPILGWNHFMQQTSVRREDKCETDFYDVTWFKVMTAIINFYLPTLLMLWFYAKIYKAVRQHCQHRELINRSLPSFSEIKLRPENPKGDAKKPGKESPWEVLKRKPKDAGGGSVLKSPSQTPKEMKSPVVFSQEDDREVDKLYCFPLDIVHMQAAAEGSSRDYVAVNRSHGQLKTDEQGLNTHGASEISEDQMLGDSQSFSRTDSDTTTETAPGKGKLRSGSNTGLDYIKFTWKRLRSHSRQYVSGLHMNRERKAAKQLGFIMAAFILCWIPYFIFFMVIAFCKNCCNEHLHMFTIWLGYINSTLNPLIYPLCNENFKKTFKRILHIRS

[7] = biological target: T1, 5-hydroxytryptamine receptor 1A (Homo sapiens) (UniProt P08908); test: Inhibition of 5-HT1A receptor at 10 uM
T1 sequence (whole entry): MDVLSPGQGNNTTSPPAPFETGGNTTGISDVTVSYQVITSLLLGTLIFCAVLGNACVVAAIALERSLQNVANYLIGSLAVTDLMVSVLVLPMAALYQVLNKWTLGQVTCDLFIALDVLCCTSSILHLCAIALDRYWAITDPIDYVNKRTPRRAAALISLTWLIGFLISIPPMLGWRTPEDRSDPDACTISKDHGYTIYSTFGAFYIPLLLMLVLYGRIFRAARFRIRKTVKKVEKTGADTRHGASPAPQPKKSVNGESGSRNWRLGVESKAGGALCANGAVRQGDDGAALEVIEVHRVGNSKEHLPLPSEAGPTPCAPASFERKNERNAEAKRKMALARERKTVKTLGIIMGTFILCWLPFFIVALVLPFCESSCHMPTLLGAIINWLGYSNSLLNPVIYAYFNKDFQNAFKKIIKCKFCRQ

[8] = biological target: T2, Alpha-1B adrenergic receptor (Homo sapiens) (UniProt P35368); test: Inhibition of Alpha-1B adrenergic receptor at 10 uM
T2 sequence (whole entry): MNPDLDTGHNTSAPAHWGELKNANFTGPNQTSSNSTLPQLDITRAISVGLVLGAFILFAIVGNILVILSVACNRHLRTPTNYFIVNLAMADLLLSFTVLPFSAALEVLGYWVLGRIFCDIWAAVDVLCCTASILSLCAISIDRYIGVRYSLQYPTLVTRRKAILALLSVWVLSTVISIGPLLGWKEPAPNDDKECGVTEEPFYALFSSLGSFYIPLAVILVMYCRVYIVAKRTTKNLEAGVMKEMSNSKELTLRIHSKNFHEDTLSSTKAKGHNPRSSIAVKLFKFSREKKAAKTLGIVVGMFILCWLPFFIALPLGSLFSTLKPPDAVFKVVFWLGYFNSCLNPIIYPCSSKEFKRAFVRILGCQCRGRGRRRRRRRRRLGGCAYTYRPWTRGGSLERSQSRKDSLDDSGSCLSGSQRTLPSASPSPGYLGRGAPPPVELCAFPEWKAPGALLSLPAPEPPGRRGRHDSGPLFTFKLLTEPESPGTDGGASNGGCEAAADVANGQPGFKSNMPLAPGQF

[9] = biological target: Beta-2 adrenergic receptor (Homo sapiens) (UniProt P07550); test: Inhibition of beta2 adrenergic receptor at 10 uM
Chain of Beta-2 adrenergic receptor (Homo sapiens) (P07550 whole entry, looked up): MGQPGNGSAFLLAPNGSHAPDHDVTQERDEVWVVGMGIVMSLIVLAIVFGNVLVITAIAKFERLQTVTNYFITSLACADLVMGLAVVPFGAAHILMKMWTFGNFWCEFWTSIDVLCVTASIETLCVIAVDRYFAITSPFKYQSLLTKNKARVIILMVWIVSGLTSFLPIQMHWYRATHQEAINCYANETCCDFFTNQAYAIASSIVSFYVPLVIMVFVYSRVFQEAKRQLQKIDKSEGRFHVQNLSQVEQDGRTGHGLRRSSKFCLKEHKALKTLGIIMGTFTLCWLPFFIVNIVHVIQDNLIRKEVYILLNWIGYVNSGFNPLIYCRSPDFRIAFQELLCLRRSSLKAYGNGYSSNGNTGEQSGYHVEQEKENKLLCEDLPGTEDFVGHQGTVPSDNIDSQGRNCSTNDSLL

[10] = biological target: Histamine H3 receptor (Homo sapiens) (UniProt Q9Y5N1); test: Inhibition of H3 receptor at 10 uM
Chain of Histamine H3 receptor (Homo sapiens) (Q9Y5N1 whole entry): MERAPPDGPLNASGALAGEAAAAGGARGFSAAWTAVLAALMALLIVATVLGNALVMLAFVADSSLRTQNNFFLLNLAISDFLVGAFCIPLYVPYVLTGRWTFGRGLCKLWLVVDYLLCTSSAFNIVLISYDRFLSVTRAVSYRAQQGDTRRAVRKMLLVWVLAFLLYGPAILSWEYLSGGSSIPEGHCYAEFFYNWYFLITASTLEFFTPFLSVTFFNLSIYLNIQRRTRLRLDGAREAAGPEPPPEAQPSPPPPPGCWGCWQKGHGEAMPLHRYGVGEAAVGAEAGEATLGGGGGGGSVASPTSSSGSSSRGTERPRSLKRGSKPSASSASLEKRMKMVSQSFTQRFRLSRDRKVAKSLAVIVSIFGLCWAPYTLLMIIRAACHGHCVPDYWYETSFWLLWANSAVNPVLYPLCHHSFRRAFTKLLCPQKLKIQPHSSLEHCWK

[11] = biological target: 5-hydroxytryptamine receptor 6 (Homo sapiens) (UniProt P50406); test: Inhibition of 5-HT6 receptor at 10 uM
Chain of 5-hydroxytryptamine receptor 6 (Homo sapiens) (P50406 whole entry): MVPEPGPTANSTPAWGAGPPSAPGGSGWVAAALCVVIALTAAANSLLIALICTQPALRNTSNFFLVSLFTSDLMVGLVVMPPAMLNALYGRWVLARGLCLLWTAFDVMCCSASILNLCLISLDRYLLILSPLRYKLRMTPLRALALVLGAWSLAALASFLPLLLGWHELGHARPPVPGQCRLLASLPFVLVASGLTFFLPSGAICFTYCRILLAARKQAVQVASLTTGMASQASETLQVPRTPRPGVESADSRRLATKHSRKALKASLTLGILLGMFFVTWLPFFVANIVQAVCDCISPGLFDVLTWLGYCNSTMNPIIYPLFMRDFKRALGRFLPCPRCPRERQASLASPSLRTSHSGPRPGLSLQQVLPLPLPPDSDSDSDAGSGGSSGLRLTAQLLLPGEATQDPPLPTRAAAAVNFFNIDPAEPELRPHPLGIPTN

[12] = Displacement of [3H]Ro151788 from CBR in rat […]; assay type: tissue-based
[13] = biological target: Histamine H2 receptor (Homo sapiens) (UniProt P25021); test: Inhibition of H2 receptor at 10 uM
Chain of Histamine H2 receptor (Homo sapiens) (P25021 whole entry): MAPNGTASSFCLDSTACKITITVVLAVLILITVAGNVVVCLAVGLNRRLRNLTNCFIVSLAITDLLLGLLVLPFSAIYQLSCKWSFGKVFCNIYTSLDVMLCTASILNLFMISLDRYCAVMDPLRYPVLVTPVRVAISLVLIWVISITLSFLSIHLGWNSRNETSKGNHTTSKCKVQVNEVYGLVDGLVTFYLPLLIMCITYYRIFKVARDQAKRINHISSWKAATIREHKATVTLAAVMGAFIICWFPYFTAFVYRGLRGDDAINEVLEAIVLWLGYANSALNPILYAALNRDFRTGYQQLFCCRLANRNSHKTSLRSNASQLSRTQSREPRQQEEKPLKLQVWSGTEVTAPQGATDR

[14] = biological target: T3, Muscarinic acetylcholine receptor M1 (Homo sapiens) (UniProt P11229); test: Inhibition of M1 muscarinic receptor at 10 uM
T3 sequence (whole entry): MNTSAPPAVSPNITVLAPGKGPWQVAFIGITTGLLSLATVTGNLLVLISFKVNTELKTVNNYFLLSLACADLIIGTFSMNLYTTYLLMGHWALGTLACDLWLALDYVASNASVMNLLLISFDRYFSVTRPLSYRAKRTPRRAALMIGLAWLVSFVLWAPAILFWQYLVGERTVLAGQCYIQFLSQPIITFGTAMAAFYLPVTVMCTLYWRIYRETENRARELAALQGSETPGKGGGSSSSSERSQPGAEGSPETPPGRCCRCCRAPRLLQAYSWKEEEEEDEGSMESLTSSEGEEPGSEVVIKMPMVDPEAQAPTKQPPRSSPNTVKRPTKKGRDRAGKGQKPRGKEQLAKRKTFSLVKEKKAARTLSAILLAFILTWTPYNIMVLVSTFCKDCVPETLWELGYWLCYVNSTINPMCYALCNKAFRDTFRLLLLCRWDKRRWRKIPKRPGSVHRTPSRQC

[15] = biological target: D(2) dopamine receptor (Homo sapiens) (UniProt P14416); test: Inhibition of D2 dopamine receptor at 10 uM
Chain of D(2) dopamine receptor (Homo sapiens) (P14416 whole entry): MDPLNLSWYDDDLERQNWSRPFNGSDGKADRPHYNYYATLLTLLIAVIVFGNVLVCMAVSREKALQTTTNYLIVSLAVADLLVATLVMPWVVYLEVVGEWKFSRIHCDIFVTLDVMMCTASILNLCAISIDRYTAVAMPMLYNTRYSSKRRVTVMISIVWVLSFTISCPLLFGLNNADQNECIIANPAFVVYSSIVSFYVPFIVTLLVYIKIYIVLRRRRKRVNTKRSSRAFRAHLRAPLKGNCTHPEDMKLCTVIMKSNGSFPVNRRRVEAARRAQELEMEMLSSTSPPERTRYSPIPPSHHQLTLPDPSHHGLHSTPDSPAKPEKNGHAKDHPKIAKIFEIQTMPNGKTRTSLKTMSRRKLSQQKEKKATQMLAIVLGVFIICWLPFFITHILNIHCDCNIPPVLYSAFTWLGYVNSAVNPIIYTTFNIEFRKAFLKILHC

[16] = biological target: T4, Muscarinic acetylcholine receptor M4 (Homo sapiens) (UniProt P08173); test: Inhibition of M4 muscarinic receptor at 10 uM
T4 sequence (whole entry): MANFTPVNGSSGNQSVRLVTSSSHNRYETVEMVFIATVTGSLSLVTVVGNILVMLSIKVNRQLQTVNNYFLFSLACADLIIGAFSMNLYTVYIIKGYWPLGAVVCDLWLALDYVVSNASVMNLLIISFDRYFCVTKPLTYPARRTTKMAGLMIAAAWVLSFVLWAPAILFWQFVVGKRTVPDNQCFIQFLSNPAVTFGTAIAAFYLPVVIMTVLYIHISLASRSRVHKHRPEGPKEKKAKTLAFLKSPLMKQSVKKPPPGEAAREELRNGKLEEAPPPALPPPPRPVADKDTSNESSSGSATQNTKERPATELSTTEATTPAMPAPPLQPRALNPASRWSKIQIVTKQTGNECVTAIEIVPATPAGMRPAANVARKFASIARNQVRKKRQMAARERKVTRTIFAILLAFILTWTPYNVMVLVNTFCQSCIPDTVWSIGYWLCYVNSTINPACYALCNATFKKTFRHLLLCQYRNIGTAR

Chain of 5-hydroxytryptamine receptor 5A (Homo sapiens) (P47898 whole entry): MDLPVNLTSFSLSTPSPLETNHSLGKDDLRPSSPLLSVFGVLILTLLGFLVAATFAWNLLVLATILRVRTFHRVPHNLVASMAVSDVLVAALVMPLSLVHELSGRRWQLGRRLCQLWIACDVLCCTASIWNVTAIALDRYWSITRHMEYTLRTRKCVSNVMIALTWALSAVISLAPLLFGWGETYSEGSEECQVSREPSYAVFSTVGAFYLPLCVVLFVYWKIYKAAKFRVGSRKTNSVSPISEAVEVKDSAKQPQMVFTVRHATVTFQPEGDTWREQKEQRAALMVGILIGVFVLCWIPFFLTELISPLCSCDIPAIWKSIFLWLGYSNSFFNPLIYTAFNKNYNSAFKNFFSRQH

With `C#CCOc1ccc(-c2nn3c(C)cc(C)nc3c2CC(=O)N(CC)CC)cc1` the inhibition [1] was less than 50%, the Ki [2] was greater than 10 µM and the inhibition [3] was less than 50%. For the same compound, the inhibition [4] was less than 50%, the inhibition [5] was less than 50% and the inhibition [6] was less than 50%. It also gave an inhibition [7] of less than 50%, an inhibition [8] of less than 50% and an inhibition [9] of less than 50%. For the same compound, the inhibition [10] was less than 50%, the inhibition [11] was less than 50% and the Ki [12] was greater than 10 µM. It also gave an inhibition [13] of less than 50%, an inhibition [14] of less than 50% and an inhibition [15] of less than 50%. The inhibition [16] was less than 50%.

`CCCOc1ccc(-c2nn3c(C)cc(C)nc3c2CC(=O)N(CC)CC)cc1` gave an inhibition [1] of less than 50%, a Ki [2] greater than 10 µM and an inhibition [3] of less than 50%. It also gave an inhibition [4] of less than 50%, an inhibition [5] of less than 50% and an inhibition [6] of less than 50%. It also gave an inhibition [7] of less than 50%, an inhibition [9] of less than 50% and an inhibition [10] of less than 50%. For the same compound, the inhibition [11] was less than 50%, the Ki [12] was greater than 10 µM and the inhibition [13] was less than 50%. It also gave an inhibition [14] of less than 50%, an inhibition [15] of less than 50% and an inhibition [16] of less than 50%.

Work on `CCCCOc1ccc(-c2nn3c(C)cc(C)nc3c2CC(=O)N(CC)CC)cc1` yielded an inhibition [1] of less than 50%, a Ki [2] of 1.57 µM and an inhibition [3] of less than 50%. It also gave an inhibition [4] of less than 50%, an inhibition [5] of less than 50% and an inhibition [6] of less than 50%. For the same compound, the inhibition [7] was less than 50%, the inhibition [8] was less than 50% and the inhibition [9] was less than 50%. For the same compound, the inhibition [10] was less than 50%, the inhibition [11] was less than 50% and the Ki [12] was greater than 10 µM. For the same compound, the inhibition [13] was less than 50%, the inhibition [14] was less than 50% and the inhibition [15] was less than 50%. The inhibition [16] was less than 50%.

With `CCOc1ccc(-c2nn3c(C)cc(C)nc3c2CC(=O)N(CC)CC)cc1` the inhibition [1] was less than 50%, the Ki [2] was greater than 10 µM and the inhibition [3] was less than 50%. It also gave an inhibition [4] of less than 50%, an inhibition [5] of less than 50% and an inhibition [6] of less than 50%. It also gave an inhibition [7] of less than 50%, an inhibition [8] of less than 50% and an inhibition [9] of less than 50%. It also gave an inhibition [10] of less than 50%, an inhibition [11] of less than 50% and a Ki [12] greater than 10 µM. For the same compound, the inhibition [13] was less than 50%, the inhibition [14] was less than 50% and the inhibition [15] was less than 50%. The inhibition [16] was less than 50%.
